From patent US10857180B2, “Pharmaceutical composition for improving health, cure abnormalities and degenerative disease, achieve anti-aging effect of therapy and therapeutic effect on mammals and method thereof” (priority 2014, dated 2020)
Values joined by “and” are separate entries in the source; they are usually repeats but may differ in a detail not shown here. Identical values can stand only once. Marks after values point to notes of the source that are not given here.

Test system: mouse L1210 leukemia
Experiment: Mouse L1210 leukemia model
Assay type: in vivo
Experimental: The efficacy of the ^64Zne aspartate composition with respect to growth and metastatic activity of the experimental tumor (strain of mouse L1210 leukemia) was assessed in the experiment. […] To inoculate the strain, tumor cells derived from ascitic fluid were placed in normal saline solution, the cellularity of suspension was determined using a hemocytometer and adjusted to a concentration of 1×10^6 cells/ml with saline solution. The tumor was transplanted by injecting 250 μl of the tumor cell suspension (0.25×10^6 cells/mouse) into abdominal cavities of the animals. 80 male BDFi mice at the age of 8-10 weeks, weighing 18-22 g were used in the experiment.
In the experiment, 0.25×10^6 cells of mouse L1210 leukemia in 0.3 ml of saline solution were injected in the peritoneal cavities of the BDFi mice. The agent according to the invention was dissolved in deuterium-depleted water (deuterium-depleted water Langvey) and given to the experimental animals from the first day after the inoculation of the tumor cells. The solution composition comprising ^64Zne aspartate and deuterium-depleted water was injected intraperitoneally using a microinjection syringe at doses of 25 μg/mouse, 50 μg/mouse and 75 pig/mouse every other day (7 times during 14 days) in a volume of 0.5 ml/mouse. The said agent was also injected intravenously at a dose of 25 μg/mouse every other day (7 times during 14 days) in a volume of 0.2 ml/mouse. […] At day 8, 13 and 18 after inoculation of tumor cells, the whole ascites fluid was recovered from the animals and the total number of live/dead cells in each mouse was determined. Some mice were also used to evaluate their average life span in the experiment.
Clinical observations were carried out as described in Example 7. The animals were divided into groups as follows (16 mice per group): • 1. Group No 1: control group, L1210+solvent (deuterium-depleted water); • 2. Group No 2: L1210+^64Zne aspartate administered i.v. at a dose of 25 μg/mouse; • 3. Group No 3: L1210+^64Zne aspartate administered i.p. at a dose of 25 μg/mouse; • 4. Group No 4: L1210+^64Zne aspartate administered i.p. at a dose of 50 μg/mouse; • 5. Group No 5: L1210+^64Zne aspartate administered i.p. at a dose of 75 μg/mouse.
^64Zne aspartate was diluted in deuterium-depleted water and injected, starting from the first day of the tumor transplantation, 7 times every other day during 14 days in a volume of 0.5 ml/mouse using an i.p. route of administration and in a volume of 0.2 ml/mouse using an i.v. route of administration. The animals of the control group received intraperitoneal injections with 0.5 ml/mouse of deuterium-depleted water.
The dynamics of formation of ascites in the control and experimental groups was assessed visually using a 10-point scale (one point was 0.5 cm of the mean diameter of the mouse abdomen filled with ascites).
In addition, at 8, 13 and 18 days after the mice were inoculated with the tumor cells, all ascitic fluid was removed from the abdomens in all animals from each group by washing their peritoneal cavities with saline solution and live and dead tumor cells were counted using the traditional vital dye trypan blue (HyClon, USA) and a hemocytometer.
The number of cells was determined using the following formula: X=((a)/80)×10^6, where X is the number of cells in 1 ml and a is the number of cells counted in 80 small squares of the hemocytometer.
50% of the mice in each group were used to assess their average length of survival in the experiment. The percentage change in the lifespan of the experimental animals was calculated using the following formula: (c−d)/[…]×100, where: c is the average lifespan in the experimental group and d is the average lifespan in the control group. The total time of observation of the lifespan of the experimental animals was 60 days after the tumor inoculation.

NC(CC(=O)[O-])C(=O)[O-].[64Zn+2] (racemic) [^64Zne aspartate, ^64Zn aspartate (racemic)]
decrease in the number of live cells in the peritoneal cavities (50 μg/mouse or 75 μg/mouse, after 3 injections): 100%
Number of live cells/mouse (M ± m) (day 8, i.p. 25 μg/mouse): 335.8 × 10^6
Percentage of dead tumor cells in ascites fluid (day 8, i.p. 25 μg/mouse): below 2%
Volume of ascites (M ± m) (day 8, i.p. 25 μg/mouse): 0.8 ± 0.8 ml/mouse
number of cells in the ascites of the one mouse with tumor cells (day 8, i.p. 25 μg/mouse, 1 of 2 mice): indicators (671. 6 × 10^6). No
Number of live cells/mouse (M ± m) (day 8, i.p. 50 μg/mouse): 0**
Percentage of dead tumor cells in ascites fluid (day 8, i.p. 50 μg/mouse): 0%
Volume of ascites (M ± m) (day 8, i.p. 50 μg/mouse): 0* ml/mouse
Number of live cells/mouse (M ± m) (day 8, i.p. 75 μg/mouse): 0**
Percentage of dead tumor cells in ascites fluid (day 8, i.p. 75 μg/mouse): 0%
Volume of ascites (M ± m) (day 8, i.p. 75 μg/mouse): 0* ml/mouse
Number of live cells/mouse (M ± m) (day 8, i.v. 25 μg/mouse): 902 × 10^6
Percentage of dead tumor cells in ascites fluid (day 8, i.v. 25 μg/mouse): below 2%
Volume of ascites (M ± m) (day 8, i.v. 25 μg/mouse): 1.2 ± 0.3 ml/mouse
Number of live cells/mouse (M ± m) (day 13, i.p. 25 μg/mouse): 532.7 × 10^6
Percentage of dead tumor cells in ascites fluid (day 13, i.p. 25 μg/mouse): below 3%
Volume of ascites (M ± m) (day 13, i.p. 25 μg/mouse): 1.9 ± 1.5 ml/mouse
Number of live cells/mouse (M ± m) (day 13, i.p. 50 μg/mouse): 0**
Percentage of dead tumor cells in ascites fluid (day 13, i.p. 50 μg/mouse): 0%
Volume of ascites (M ± m) (day 13, i.p. 50 μg/mouse): 0* ml/mouse
Number of live cells/mouse (M ± m) (day 13, i.p. 75 μg/mouse): 0**
Percentage of dead tumor cells in ascites fluid (day 13, i.p. 75 μg/mouse): 0%
Volume of ascites (M ± m) (day 13, i.p. 75 μg/mouse): 0* ml/mouse
Number of live cells/mouse (M ± m) (day 13, i.v. 25 μg/mouse): 1322 × 10^6
Percentage of dead tumor cells in ascites fluid (day 13, i.v. 25 μg/mouse): below 3%
Volume of ascites (M ± m) (day 13, i.v. 25 μg/mouse): 6 ± 1.5 ml/mouse
amount of ascites less than control (day 15, 50 μg): 87%
amount of ascites less than control (day 15, 75 μg): 90%
amount of ascites less than control (day 15, i.p. 25 μg/mouse): 60%
Average lifespan of animals (M ± m) (i.p. 25 μg/mouse): 28.1 ± 4.7 days
Increase in the lifespan of experimental animals (i.p. 25 μg/mouse): 41.3%
Number of animals in the group with tumor (i.p. 25 μg/mouse): 11 pc
Number of animals in the group without tumor (i.p. 25 μg/mouse): 5 pc
Tumor-free animals (i.p. 25 μg/mouse x7): 31.2%
Volume of ascites in mice (i.p. 25 μg/mouse x7, day 8): 0.6 ± 0.3 points
Volume of ascites in mice (i.p. 25 μg/mouse, day 10): 1.1 ± 0.5 points
Volume of ascites in mice (i.p. 25 μg/mouse, day 13): 2.5± 0.6 points
Volume of ascites in mice (i.p. 25 μg/mouse, day 15): 4.1 points and 4.1 ± 1.1 points
Volume of ascites in mice (i.p. 25 μg/mouse, day 18): 4.8 ± 1.4 points
Volume of ascites in mice (i.p. 25 μg/mouse, day 20): 4.6 ± 1.8 points
Volume of ascites in mice (i.p. 25 μg/mouse, day 22): 3.5 ± 2.2 points
Volume of ascites in mice (i.p. 25 μg/mouse, day 26): 2.5 ± 2.5 points
Volume of ascites in mice (i.p. 25 μg/mouse, day 28): 0 points
Average lifespan of animals (M ± m) (i.p. 50 μg/mouse): 41.6 ± 8.7 days
Increase in the lifespan of experimental animals (i.p. 50 μg/mouse): 60.3%
Number of animals in the group with tumor (i.p. 50 μg/mouse): 5 pc
Number of animals in the group without tumor (i.p. 50 μg/mouse): 11 pc
Tumor-free animals (i.p. 50 μg/mouse x7): 68.8%
Volume of ascites in mice (i.p. 50 μg/mouse x7, day 8): 0* points
Volume of ascites in mice (i.p. 50 μg/mouse, day 10): 0* points
Volume of ascites in mice (i.p. 50 μg/mouse, day 13): 0.4 ± 0.2 points
Volume of ascites in mice (i.p. 50 μg/mouse, day 15): 1.3 ± 0.7 points
Volume of ascites in mice (i.p. 50 μg/mouse, day 15, listed as 64Zn aspartate): 1.3 points
Volume of ascites in mice (i.p. 50 μg/mouse, day 18): 1.1 ± 1.1 points
Volume of ascites in mice (i.p. 50 μg/mouse, day 20): 0 points
Volume of ascites in mice (i.p. 50 μg/mouse, day 22): 0 points
Volume of ascites in mice (i.p. 50 μg/mouse, day 26): 0 points
Volume of ascites in mice (i.p. 50 μg/mouse, day 28): 0 points
Average lifespan of animals (M ± m) (i.p. 75 μg/mouse): 55 ± 5 days
Increase in the lifespan of experimental animals (i.p. 75 μg/mouse): 70%
Number of animals in the group with tumor (i.p. 75 μg/mouse): 1 pc
Number of animals in the group without tumor (i.p. 75 μg/mouse): 15 pc
Tumor-free animals (i.p. 75 μg/mouse x7): 93.8%
Volume of ascites in mice (i.p. 75 μg/mouse x7, day 8): 0* points
Volume of ascites in mice (i.p. 75 μg/mouse, day 10): 0* points
Volume of ascites in mice (i.p. 75 μg/mouse, day 13): 0.4 ± 0.4 points
Volume of ascites in mice (i.p. 75 μg/mouse, day 15): 1 ± 1 points
Volume of ascites in mice (i.p. 75 μg/mouse, day 15, listed as 64Zn aspartate): 1 points
Volume of ascites in mice (i.p. 75 μg/mouse, day 18): 1.1 ± 1.1 points
Volume of ascites in mice (i.p. 75 μg/mouse, day 20): 0 points
Volume of ascites in mice (i.p. 75 μg/mouse, day 22): 0 points
Volume of ascites in mice (i.p. 75 μg/mouse, day 26): 0 points
Volume of ascites in mice (i.p. 75 μg/mouse, day 28): 0 points
Increase in the lifespan of experimental animals (i.v. 25 μg/mouse): 2.4%
Number of animals in the group without tumor (i.v. 25 μg/mouse): 0 pc
Tumor-free animals (i.v. 25 μg/mouse): 0%
Volume of ascites in mice (i.v. 25 μg/mouse x7, day 8): 3.3 ± 0.3 points
Number of animals in the group with tumor (i.v. 25 μg/mouse, 16 mice per group): 16 pc
Average lifespan of animals (M ± m) (i.v. 25 μg/mouse, 60 days observation): 16.9 ± 1.3 days
Volume of ascites in mice (i.v. 25 μg/mouse, day 10): 4.7 ± 0.4 points
Volume of ascites in mice (i.v. 25 μg/mouse, day 13): 7.7 ± 0.4 points
Volume of ascites in mice (i.v. 25 μg/mouse, day 15): 9.7 ± 0.3 points
Volume of ascites in mice (i.v. 25 μg/mouse, day 18): 8 ± 0.9 points
Volume of ascites in mice (i.v. 25 μg/mouse, day 20): 10 points
percentage of dead tumor cells in the ascites treated with the agent (mouse, in vivo): ≤ 5%
effect on the growth of mouse leukemia L1210 cells (series of intravenous injections): no effect
